In publication PMC5537066, “Dimerization facilitates the conformational transitions for bacterial phosphotransferase enzyme I autophosphorylation in an allosteric manner” (FEBS Open Bio, 2017):

Assays:
Test in all cases: isothermal titration calorimetry
Format in all cases: binding
Settings in all cases: read-out: K D (μS)
[1] = target: T1, EIC (EIC(G356S)) (Escherichia coli, UniProt P08839, G356S)
T1 construct: gene ptsI; pET11 or pET15b with N-terminal His6 tag; E. coli BL21star(DE3)

[2] = target: T2, EI (EIA, EIA(G356S)) (Escherichia coli, UniProt P08839, G356S/H189A)
T2 construct: gene ptsI; full length 1-575; pET11 or pET15b with N-terminal His6 tag; E. coli BL21star(DE3); dimer with PEP
Text: isothermal titration calorimetry on EI (EIA, EIA(G356S))

[3] = target: T3, EIA^ΔEINα (G356S) (Escherichia coli, UniProt P08839, DEL22-145/G356S/H189A)
T3 construct: gene ptsI; EI(1-21, 146-575), EINalpha subdomain deleted; pET11 or pET15b with N-terminal His6 tag; E. coli BL21star(DE3)
Text: isothermal titration calorimetry on EIA^ΔEINα (G356S)

## C=C(OP(=O)(O)O)C(=O)O [PEP]
[1]
  Kd: 310 ± 100 µM
[2]
  Kd: 14 ± 0.9 µM
[3]
  Kd: 1.3 ± 0.1 µM
